This is an account of results in patent publication US11472798B2 (Mission Therapeutics Limited, priority 2014, dated 2022).

This assay concerns the target T1, UCHL1 (Homo sapiens, UniProt P09936).
T1 construct: made in house; host or cells: HEK293T
T1 sequence (P09936 1-223): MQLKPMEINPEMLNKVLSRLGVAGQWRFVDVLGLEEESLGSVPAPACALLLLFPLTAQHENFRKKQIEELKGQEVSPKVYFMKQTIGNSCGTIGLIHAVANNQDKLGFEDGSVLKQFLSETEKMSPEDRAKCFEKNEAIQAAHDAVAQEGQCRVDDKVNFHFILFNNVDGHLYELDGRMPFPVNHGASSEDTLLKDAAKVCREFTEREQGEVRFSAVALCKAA
The assay can be described thus: UCHL1 biochemical IC50 assay (fluorescence polarisation). As to conditions: 30 min enzyme/compound pre-incubation at room temp, read after 2 hr incubation, read-out: Activity range (UCHL1 biochemical IC50 assay). Summed up: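 Fluorescence polarisation (ex 540/em 590 nm) of 50 nM TAMRA-labelled ubiquitin–peptide isopeptide substrate was read at time zero and after 2 h at room temperature. Compounds (100–0.03 μM final, in duplicate) were given 30 min preincubation with N-FLAG UCHL1 from HEK293T cells in pH 7.5 Tris buffer.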
In general terms: Fluorescence polarisation rises when a labelled molecule tumbles more slowly, as on binding a larger partner.
By IC50 is commonly meant the concentration needed to halve the response being measured. Take `N#CN1CCC(C(=O)Nc2ncc(/C=C/C3CC3)s2)C1` (centres unmarked) [Example 113, (E)-1-cyano-N-(5-(2-cyclopropylvinyl)thiazol-2-yl)pyrrolidine-3-carboxamide]: the IC50 was under 1 µM.
The figure for `CNc1cc(-c2ccnc(NC(=O)[C@H]3CCN(C#N)C3)c2)ccn1` [Example 259, (S)-1-cyano-N-(2′-(methylamino)-[4,4′-bipyridin]-2-yl)pyrrolidine-3-carboxamide] is 1 to 10 µM; for `COc1cc(-c2ccc3nc(NC(=O)[C@H]4CCN(C#N)C4)sc3c2)c(OC)nn1` [Example 132, (S)-1-cyano-N-(6-(3,6-dimethoxypyridazin-4-yl)benzo[d]thiazol-2-yl)pyrrolidine-3-carboxamide] it is under 1 µM; for `CC1CC(C(=O)Nc2ncc(-c3ccccc3)s2)CN1C#N` (mixture of isomers) [Example 88, 1-cyano-5-methyl-N-(5-phenylthiazol-2-yl)pyrrolidine-3-carboxamide] it is 1 to 10 µM.
For `Cc1oncc1-c1cc(-c2ccnc(NC(=O)[C@H]3CCN(C#N)C3)c2)ccn1` [Example 297, (S)-1-cyano-N-(2′-(5-methylisoxazol-4-yl)-[4-4′-bipyridin]-2-yl)pyrrolidine-3-carboxamide], the IC50 is under 1 µM.
Consider `N#CN1CC[C@H](C(=O)Nc2cn(-c3ccccc3)cn2)C1` [Example 41, (S)-1-cyano-N-(1-phenyl-1H-imidazol-4-yl)pyrrolidine-3-carboxamide], for which the IC50 is under 1 µM.
The result for `CNC(=O)c1cccc(-c2cnc(NC(=O)[C@H]3CCN(C#N)C3)s2)n1` [Example 224, (S)-6-(2-(1-cyanopyrrolidine-3-carboxamido)thiazol-5-yl)-N-methylpicolinamide] reads under 1 µM.
Turning to `N#CN1CC[C@H](C(=O)Nc2cn3cc(-c4cnco4)ccc3n2)C1` [Example 276, (S)-1-cyano-N-(6-(oxazol-5-yl)imidazo[1 ,2-a]pyridin-2-yl)pyrrolidine-3-carboxamide], the IC50 is under 1 µM.
Consider `N#CN1CC[C@H](C(=O)Nc2cn(-c3ccc(F)cc3)cn2)C1` [Example 150, (S)-1-cyano-N-(1-(4-fluorophenyl)-1H-imidazol-4-yl)pyrrolidine-3-Carboxamide], for which the IC50 was under 1 µM.
Turning to `N#CN1CC[C@H](C(=O)Nc2cn3cc(C(F)(F)F)ccc3n2)C1` [Example 270, (S)-1-cyano-N-(6-(trifluoromethyl)imidazo[1,2-a]pyridin-2-yl)pyrrolidine-3-carboxamide], the IC50 is under 1 µM.
Regarding `CC(C)(C)c1cc(NC(=O)C2CCN(C#N)C2)no1` (centres unmarked) [Example 16, N-(5-(tert-butyl)isoxazol-1-3-yl)-1-cyano-pyrrolidine-3-carboxamide], the half-maximal inhibitory concentration (IC50) fell in the range of 10 to 30 µM.
The result for `N#CN1CC[C@H](C(=O)Nc2cccc(N3CCCC3)n2)C1` [Example 106, (S)-1-cyano-N-(6-(pyrrolidin-1-yl)pyridin-2-yl)pyrrolidine-3-carboxamide] reads 10 to 30 µM; that for `N#Cc1cccc(-c2cnc(NC(=O)[C@H]3CCN(C#N)C3)s2)c1` [Example 117, (S)-1-cyano-N-(5-(3-cyanophenyl)thiazol-2-yl)pyrrolidine-3-carboxamide], under 1 µM; that for `N#CN1CC[C@H](C(=O)Nc2cn(C3CCOCC3)cn2)C1` [Example 161, (S)-1-cyano-N-(1-(tetrahydro-2H-pyran-4-yl)-1H-imidazol-4-yl)pyrrolidine-3-carboxamide], under 1 µM.
Regarding `N#Cc1ccc(OC2COC2)cc1-n1cnc(NC(=O)[C@H]2CCN(C#N)C2)c1` [Example 250, (S)-1-cyano-N-(1-(2-cyano-5-(oxetan-3-yloxy)phenyl)-1H-imidazol-4-yl)pyrrolidine-3-carboxamide], the IC50 was under 1 µM.
The figure for `N#CN1CCC(C(=O)Nc2ccc3c(cnn3Cc3ccccc3)c2)C1` (centres unmarked) [Example 39, N-(1-benzyl-1H-indazol-5-yl)-1-cyano-pyrrolidine-3-carboxamide] is 10 to 30 µM; for `Cc1cnc(NC(=O)[C@@H]2CN(C#N)C[C@H]2C)s1` [Example 83, (3S,4S)-1-cyano-4-methyl-N-(5-methylthiazol-2-yl)pyrrolidine-3-carboxamide] it is 1 to 10 µM.
For `N#CN1CC[C@H](C(=O)Nc2cccc(-c3ccccc3)n2)C1` [Example 55, (S)-1-cyano-N-(6-phenylpyridin-2-yl)pyrrolidine 3-carboxamide], the IC50 lay in the range of 1 to 10 µM.
Consider `N#CN1CC[C@H](C(=O)Nc2cc3n(n2)CCN(c2ccccc2)C3)C1` [Example 241, (S)-1-cyano-N-(5-phenyl-4,5,6,7-tetrahydropyrazolo[1,5-a]pyrazin-2-yl)pyrrolidine-3-carboxamide], for which the IC50 is under 1 µM.
The result for `N#Cc1ccc(-n2cnc(NC(=O)[C@H]3CCN(C#N)C3)c2)cc1OC1COC1` [Example 249, (S)-1-cyano-N-(1-(4-cyano-3-(oxetan-3-yloxy)phenyl)-1H-imidazol-4-yl)pyrrolidine-3-carboxamide] reads under 1 µM; that for `C[C@H](c1ccccc1)n1cnc(NC(=O)[C@H]2CCN(C#N)C2)c1` [Example 167, (S)-1-cyano-N-(1-((R)-1-phenylethyl)-1H-imidazol-4-yl)pyrrolidine-3-carboxamide], under 1 µM.
The figure for `N#CN1CC[C@H](C(=O)Nc2ccc3cccnc3n2)C1` [Example 56, (S)-1-cyano-N-(1,8-naphthyridin-2-yl)pyrrolidine-3-carboxamide] is 10 to 30 µM; for `N#CN1CCC(C(=O)Nc2ccc(-c3ccccc3)nn2)C1` (centres unmarked) [Example 36, 1-cyano-N-(6-phenyl-pyridazin-3-yl)pyrrolidine-3-carboxamide] it is 10 to 30 µM.
Turning to `N#Cc1ccc(-n2cnc(NC(=O)[C@H]3CCN(C#N)C3)c2)cc1C(F)(F)F` [Example 309, (S)-1-cyano-N-(1-(4-cyano-3-(trifluoromethyl)phenyl)-1H-imidazol-4-yl)pyrrolidine-3-carboxamide], the IC50 is under 1 µM.
With `COC[C@H]1CCCN1c1cnc(NC(=O)[C@H]2CCN(C#N)C2)s1` [Example 99, (S)-1-cyano-N-(5-((R)-2-(methoxymethyl)pyrrolidin-1-yl)thiazol-2-yl)pyrrolidine-3-carboxamide], the IC50 was under 1 µM.
With `CN(C)S(=O)(=O)N1CCc2nc(NC(=O)[C@H]3CCN(C#N)C3)sc2C1` [Example 212, (S)-1-cyano-N-(5-(N,N-dimethylsulfamoyl)-4,5,6,7-tetrahydrothiazolo[5,4-c]pyridin-2-yl)pyrrolidine-3-carboxamide], the IC50 was under 1 µM.
`N#Cc1ccc(-n2cnc(NC(=O)[C@H]3CCN(C#N)C3)c2)cc1C1CC1` [Example 304, (S)-1-cyano-N-(1-(4-cyano-3-cyclopropylphenyl)-1H-imidazol-4-yl)pyrrolidine-3-carboxamide]: the IC50 is under 1 µM.
For the compound `N#CN1CC[C@H](C(=O)Nc2nc3ccc(-c4ccccc4)cc3s2)C1` [Example 122, (S)-1-cyano-N-(6-phenylbenzo[d]thiazol-2-yl)pyrrolidine-3-carboxamide], the IC50 was 1 to 10 µM.
In the case of `Cc1oncc1-c1cccc(-c2ccnc(NC(=O)[C@H]3CCN(C#N)C3)c2)c1` [Example 290, (S)-1-cyano-N-(4-(3-(5-methylisoxazol-4-yl)phenyl)pyridin-2-yl)pyrrolidine-3-carboxamide], the IC50 is under 1 µM.
